This note sets out measurements from ChEMBL document CHEMBL4602696, “LMP2 Inhibitors as a Potential Treatment for Alzheimer's Disease” (J Med Chem, 2020).

Active and inactive are the calls of the source. No cut-off for these calls is given here.

Experiment [1] has as its target T1, Proteasome subunit beta type-9 (Homo sapiens, UniProt P28065).
T1 sequence (P28065 whole entry): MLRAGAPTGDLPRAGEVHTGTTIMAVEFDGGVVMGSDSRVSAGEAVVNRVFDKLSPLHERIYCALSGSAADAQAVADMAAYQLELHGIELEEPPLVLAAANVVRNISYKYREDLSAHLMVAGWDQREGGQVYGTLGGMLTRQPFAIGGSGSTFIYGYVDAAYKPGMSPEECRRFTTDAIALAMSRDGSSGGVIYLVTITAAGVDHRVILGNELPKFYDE
Nature of the experiment: Inhibition of LMP2 in human 20S immunoproteasome using Ac-PAL-AMC as substrate after 1 hr by fluorescence based microplate reader analysis.

Experiment [2] is described as follows: Inhibition of LMP7/Beta 5 subunit chymotrypsin-like activity in human RPM18226 cell lysates using Suc-LLVY-AMC as substrate after 1 hr by fluorescence based microplate reader analysis. The note with it: rpmi-8226. Format: cell-free.
In experiment [3] the target is T2, Proteasome subunit beta type-8 (Homo sapiens, UniProt P28062).
T2 sequence (P28062 whole entry): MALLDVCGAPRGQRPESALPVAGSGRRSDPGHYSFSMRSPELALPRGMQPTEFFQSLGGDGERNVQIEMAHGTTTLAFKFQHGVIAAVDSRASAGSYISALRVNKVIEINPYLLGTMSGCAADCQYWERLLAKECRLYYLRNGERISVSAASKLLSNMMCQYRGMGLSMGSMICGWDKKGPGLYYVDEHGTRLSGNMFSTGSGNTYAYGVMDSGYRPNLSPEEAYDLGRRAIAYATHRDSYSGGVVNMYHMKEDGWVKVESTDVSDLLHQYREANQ
The experiment is described as follows: Inhibition of LMP7 in human 20S immunoproteasome using Ac-ANW-AMC as substrate after 1 hr by fluorescence based microplate reader analysis.

For experiment [4], the target named is T3, Proteasome Macropain subunit MB1 (Homo sapiens, UniProt P28074).
T3 sequence (P28074 whole entry): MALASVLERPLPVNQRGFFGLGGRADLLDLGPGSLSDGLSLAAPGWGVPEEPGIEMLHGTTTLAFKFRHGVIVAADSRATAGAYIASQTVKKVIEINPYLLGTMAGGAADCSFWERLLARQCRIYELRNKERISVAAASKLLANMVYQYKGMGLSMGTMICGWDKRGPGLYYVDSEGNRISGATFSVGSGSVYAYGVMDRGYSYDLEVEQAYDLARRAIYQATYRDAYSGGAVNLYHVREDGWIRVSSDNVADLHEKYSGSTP
Nature of the experiment: Inhibition of Beta5 in human 20S […] usingAc-WLA-AMC as substrate after 1 hr by fluorescence based microplate reader analysis.

Experiment [5] has as its target T4, Proteasome subunit beta type-9 (Homo sapiens) (UniProt P28065).
T4 sequence (whole entry): T1 sequence (P28065 whole entry)
The experiment is described as follows: Inhibition of LMP2 subunit in human DLD1 cells over expressing ABCB1 at 1 uM using Ac-PAL-AMC as substrate incubated for 4 hrs. Format: cell-based. The note with it: DLD-1.

Experiment [6] has as its target T4, Proteasome subunit beta type-9 (Homo sapiens). The experiment is described as follows: Inhibition of immunoproteasome LMP2 subunit in human DLD1 cells over expressing ABCB1 at 3 uM using Ac-PAL-AMC as substrate incubated for 4 hrs in presence of reversin-121. Format: cell-based. The note with it: DLD-1.

In general, IC50 refers to the midpoint of a concentration-inhibition curve. Read a high IC50 as weaker potency in that assay. Regarding `CC(C)C[C@H](NC(=O)[C@H](Cc1ccc(-c2ccccc2)cc1)NC(=O)[C@@H]1CCCN1C(=O)CNC(=O)c1cnccn1)C(=O)[C@@]1(C)CO1`, the figures for the IC50 in experiment [1] and in experiment [2] were 62.8 nM and 10 µM, respectively.
Turning to `CC(C)C[C@H](NC(=O)[C@H](Cc1ccccc1)NC(=O)[C@@H]1CCCN1C(=O)CN1CCOCC1)C(=O)[C@@]1(C)CO1`, the IC50 in experiment [1] is 1220 nM; in experiment [2] it was more than 10 µM.
Regarding `CC(=O)NCC(=O)N1CCC[C@H]1C(=O)N[C@@H](Cc1cccc2ccccc12)C(=O)N[C@@H](CC(C)C)C(=O)[C@@]1(C)CO1`, the half-maximal inhibitory concentration (IC50) is 29.7 nM in experiment [1] and more than 10 µM in experiment [2].
As to `CC(=O)NCC(=O)N1CC(=O)C[C@H]1C(=O)N[C@@H](Cc1ccccc1)C(=O)N[C@@H](CC(C)C)C(=O)[C@@]1(C)CO1`, the concentration for half-maximal inhibition (IC50) in experiment [1] was 622 nM; in experiment [2] it was more than 10 µM.
With `CC(=O)NCC(=O)N1CCC[C@H]1C(=O)N[C@@H](Cc1ccccc1)C(=O)N[C@@H](CC(C)C)C(=O)[C@]1(C)CO1`, the IC50 in experiment [3] and in experiment [4] was more than 10 µM throughout.
For `CC(=O)NCC(=O)N1CCC[C@H]1C(=O)N[C@@H](Cc1ccc(C(C)(C)C)cc1)C(=O)N[C@@H](CC(C)C)C(=O)[C@@]1(C)CO1`, the half-inhibitory concentration (IC50) in experiment [1] is 121 nM; in experiment [2], more than 10 µM.
Take `CC(C)C[C@H](NC(=O)[C@H](Cc1ccccc1)NC(=O)[C@@H]1CCCN1C(=O)CNS(C)(=O)=O)C(=O)[C@@]1(C)CO1`: the 50% inhibitory concentration (IC50) in experiment [1] was 115 nM; in experiment [2], more than 10 µM.
In the case of `CC(=O)NCC(=O)N1CCC[C@H]1C(=O)N[C@@H](Cc1ccc(F)cc1)C(=O)N[C@@H](CC(C)C)C(=O)[C@@]1(C)CO1`, the IC50 in experiment [1] was 82 nM; in experiment [2] it was more than 10 µM.
Turning to `CC(=O)NCC(=O)N1CCC[C@H]1C(=O)N[C@@H](Cc1ccc2ccccc2c1)C(=O)N[C@@H](CC(C)C)C(=O)[C@@]1(C)CO1`, the IC50 in experiment [1] was 33.5 nM; in experiment [2] it was more than 10 µM.
Regarding `CC(C)C[C@H](NC(=O)[C@H](Cc1ccccc1)NC(=O)[C@@H]1CCCN1C(=O)c1cccc(O)n1)C(=O)[C@@]1(C)CO1`, the IC50 in experiment [1] was 1010 nM; in experiment [2], more than 10 µM.
For `CC(C)C[C@H](NC(=O)[C@H](Cc1ccccc1)NC(=O)[C@@H]1CCCN1C(=O)CN1CCOCC1=O)C(=O)[C@@]1(C)CO1`, in that order: 1040 nM and more than 10 µM.
Consider `CCCC[C@H](NC(=O)[C@@H]1CCCN1C(=O)CNC(C)=O)C(=O)N[C@@H](CC(C)C)C(=O)[C@@]1(C)CO1`, for which the IC50 in experiment [1] is 120 nM; in experiment [2], more than 10 µM.
The matching figures for `CC(=O)NCC(=O)N1CCCC[C@H]1C(=O)N[C@@H](Cc1ccccc1)C(=O)N[C@@H](CC(C)C)C(=O)[C@@]1(C)CO1`: 123 nM and 1.31 µM.
The matching figures for `CC(=O)NCC(=O)N1CCC[C@H]1C(=O)N[C@@H](Cc1ccc(NC(=O)CN2CCOCC2)cc1)C(=O)N[C@@H](CC(C)C)C(=O)[C@@]1(C)CO1`: 90.9 nM and more than 10 µM.
For `CC(=O)NCC(=O)N1C[C@H](F)C[C@H]1C(=O)N[C@@H](Cc1ccccc1)C(=O)N[C@@H](CC(C)C)C(=O)[C@@]1(C)CO1`, in that order: 151 nM and more than 10 µM.
Regarding `COc1cnc(C(=O)NCC(=O)N2CCC[C@H]2C(=O)N[C@@H](Cc2ccccc2)C(=O)N[C@@H](CC(C)C)C(=O)[C@@]2(C)CO2)cn1`, the concentration for half-maximal inhibition (IC50) in experiment [1] was 111 nM; in experiment [2] it was more than 10 µM.
As to `CC(=O)NCC(=O)N1CC[C@H]1C(=O)N[C@@H](Cc1ccccc1)C(=O)N[C@@H](CC(C)C)C(=O)[C@@]1(C)CO1`, the half-inhibitory concentration (IC50) in experiment [1] is 100 nM; in experiment [2], more than 10 µM.
Take `CC(=O)NCC(=O)N1CCC[C@H]1C(=O)N[C@@H](CO)C(=O)N[C@@H](CC(C)C)C(=O)[C@@]1(C)CO1`: the results for the IC50 in experiment [1] and in experiment [2] were 120 nM and more than 10 µM, respectively.
For `Cc1cc(C(=O)NCC(=O)N2CCC[C@H]2C(=O)N[C@@H](CCc2ccccc2)C(=O)N[C@@H](CC(C)C)C(=O)[C@@]2(C)CO2)no1`, the IC50 worked out at 132 nM in experiment [1] and 10 µM in experiment [2].
On to `CC(=O)NCC(=O)N1CCC[C@H]1C(=O)N[C@@H](CCc1ccccc1)C(=O)N[C@@H](CC(C)C)C(=O)[C@@]1(C)CO1`, for which the IC50 was 58 nM in experiment [1] and more than 10 µM in experiment [2].
Consider `CC(=O)NCC(=O)N1CCC[C@H]1C(=O)N[C@@H](Cc1ccncc1)C(=O)N[C@@H](CC(C)C)C(=O)[C@@]1(C)CO1`, for which the IC50 in experiment [1] was 122 nM; in experiment [2], 10 µM.
As for `CC(C)C[C@H](NC(=O)[C@H](CCc1ccccc1)NC(=O)[C@@H]1CCCN1C(=O)CNC(=O)c1cnccn1)C(=O)[C@@]1(C)CO1`, the values for the IC50 in experiment [1] and in experiment [2] were 131 nM and more than 10 µM, respectively. Moreover, the inhibition result in experiment [5] was “Active”.
Turning to `CC(=O)NCC(=O)N1CCC[C@H]1C(=O)N[C@@H](Cc1ccccc1)C(=O)N[C@@H](Cc1ccccc1)C(=O)[C@@]1(C)CO1`, the IC50 in experiment [1] is 342 nM; in experiment [2], more than 10 µM.
In the case of `CC(=O)NCC(=O)N1CCC[C@H]1C(=O)N[C@@H](Cc1ccc(NC(=O)c2cnccn2)cc1)C(=O)N[C@@H](CC(C)C)C(=O)[C@@]1(C)CO1`, the IC50 is 33.2 nM in experiment [1] and more than 10 µM in experiment [2].
As to `CC(C)C[C@H](NC(=O)[C@H](Cc1ccccc1)NC(=O)[C@@H]1CCCN1C(=O)CNC(=O)C(F)(F)F)C(=O)[C@@]1(C)CO1`, the IC50 was 131 nM in experiment [1] and more than 10 µM in experiment [2].
Take `CC(=O)NCC(=O)N1CCC[C@H]1C(=O)N[C@@H](Cc1ccc(-c2ccccc2)cc1)C(=O)N[C@@H](CC(C)C)C(=O)[C@@]1(C)CO1`: the values for the IC50 in experiment [1] and in experiment [2] were 21.7 nM and 5.3 µM, respectively.
Consider `CC(=O)NCC(=O)N1CCC[C@H]1C(=O)N[C@@H](Cc1ccccc1)C(=O)N[C@@H](CC1CCCCC1)C(=O)[C@@]1(C)CO1`, for which the concentration for half-maximal inhibition (IC50) is 201 nM in experiment [1] and more than 10 µM in experiment [2].
Take `Cc1ncc(C(=O)NCC(=O)N2CCC[C@H]2C(=O)N[C@@H](Cc2ccc(-c3ccccc3)cc2)C(=O)N[C@@H](CC(C)C)C(=O)[C@@]2(C)CO2)s1`: the IC50 in experiment [1] stood at 115 nM; in experiment [2], 10 µM. In addition, the inhibition result in experiment [5] is “Active”.
As to `CC(C)C[C@H](NC(=O)[C@H](Cc1ccccc1)NC(=O)[C@@H]1CCCN1C(=O)CNC(=O)c1cccc(O)n1)C(=O)[C@@]1(C)CO1`, the IC50 in experiment [1] was 143 nM; in experiment [2] it was more than 10 µM.
Turning to `CCc1ccc(C[C@H](NC(=O)[C@@H]2CCCN2C(=O)CNC(C)=O)C(=O)N[C@@H](CC(C)C)C(=O)[C@@]2(C)CO2)cc1`, the half-inhibitory concentration (IC50) in experiment [1] is 134 nM; in experiment [2] it was more than 10 µM.
In the case of `CC(=O)NCC(=O)N1CCC[C@@]1(C)C(=O)N[C@@H](Cc1ccccc1)C(=O)N[C@@H](CC(C)C)C(=O)[C@@]1(C)CO1`, the results for the IC50 in experiment [1] and in experiment [2] were 152 nM and more than 10 µM, respectively.
As to `CC(C)C[C@H](NC(=O)[C@H](Cc1ccc2ccccc2c1)NC(=O)[C@@H]1CCCN1C(=O)CNC(=O)c1cnccn1)C(=O)[C@@]1(C)CO1`, the IC50 was found to be 90.1 nM in experiment [1] and 5.76 µM in experiment [2].
Turning to `Cc1ncc(C(=O)NCC(=O)N2CCC[C@H]2C(=O)N[C@@H](Cc2ccc3ccccc3c2)C(=O)N[C@@H](CC(C)C)C(=O)[C@@]2(C)CO2)s1`, the IC50 is 183 nM in experiment [1] and more than 10 µM in experiment [2].
Consider `CC(=O)NCC(=O)N1CC(F)(F)C[C@H]1C(=O)N[C@@H](Cc1ccccc1)C(=O)N[C@@H](CC(C)C)C(=O)[C@@]1(C)CO1`, for which the values for the IC50 in experiment [1] and in experiment [2] were 71.8 nM and more than 10 µM, respectively.
With `Cc1ncc(C(=O)NCC(=O)N2CCC[C@H]2C(=O)N[C@@H](Cc2ccccc2)C(=O)N[C@@H](CC(C)C)C(=O)[C@@]2(C)CO2)s1`, the concentration for half-maximal inhibition (IC50) in experiment [1] was 106 nM; in experiment [2], more than 10 µM.
`Cc1ncc(C(=O)NCC(=O)N2CCC[C@H]2C(=O)N[C@@H](CCc2ccccc2)C(=O)N[C@@H](CC(C)C)C(=O)[C@@]2(C)CO2)s1`: the values for the IC50 in experiment [1] and in experiment [2] were 103 nM and more than 10 µM, respectively.
Regarding `CC(=O)NCC(=O)N1CCC[C@H]1C(=O)N[C@@H](Cc1ccccc1)C(=O)N[C@@H](CC(C)C)C(=O)[C@@]1(C)CO1`, the IC50 in experiment [3], in experiment [2] and in experiment [4] was more than 10 µM each time. Further, in experiment [6], the inhibition entry was “Active”. Further, the inhibition result in experiment [5] is “inactive”.
For `CC(=O)NCC(=O)N1CCC[C@H]1C(=O)N[C@@H](Cc1ccc(NC(=O)c2ccccc2)cc1)C(=O)N[C@@H](CC(C)C)C(=O)[C@@]1(C)CO1`, the IC50 was 72 nM in experiment [1] and 5.08 µM in experiment [2].
